Results published in patent publication US4582934A, “Alpha,alpha-dimethylphenylacetanilide derivatives, process for production thereof, and use thereof as insecticide” (Yashima Chemical Industrial Co., Ltd., priority 1983, dated 1986).
Values after ≈ are worked out from the molar mass of the structure shown. Read-outs that look alike come from different tables or passages of the source.

How the values were obtained:
Assay type in all cases: in vivo
[1] = test system: Resistant Plutella xylostella; assay: Field test on Plutella xylostella (cabbage, spray); conditions: larvae per 10 heads of cabbage, not sprayed = 100
Protocol: Field test on Plutella xylostella:
On predetermined dates, the number of larvae per 10 heads of cabbage was examined, and the corrected density indices of the test compounds were calculated in accordance with the following equation. [formula]

[2] = test system: Resistant Plutella xylostella; assay: Indoor test on 3rd-instar larvae of Plutella xylostella, resistant insects (cabbage leaf dip); conditions: foliar, read-out: LC50 (50% lethal concentration)
Protocol: (§1) Indoor test on 3rd-instar larvae of Plutella xylostella:
(§2) A wettable powder prepared as in Formulation Example 2 was diluted to a predetermined concentration. Cabbage leaves were dipped for 10 seconds in the resulting dilution and then air dried. The leaves were put into a polyvinyl chloride cup having a capacity of 90 ml together with 3rd-instar larvae of Plutella xylostella. The cup was left to stand in a constant temperature chamber kept at 25° C., and 72 hours later, the number of dead insects was examined. For each test area, the test was repeated twice, and 20 insects were used in each area. The ratio of the dead insects was calculated, and LC50 (50% lethal concentration) values of the test compounds were determined by the method of Bliss.
(§3) The sensitive Plutella xylostella insects in the table were those bred through generations at the Laboratory of Yashima Chemical Industrial Co., Ltd. The resistant ones were hunted at Tsumakoi-mura, Gunma-ken, Japan.

[3] = test system: Sensitive Plutella xylostella; assay: Indoor test on 3rd-instar larvae of Plutella xylostella, sensitive insects (cabbage leaf dip); conditions: foliar, read-out: LC50 (50% lethal concentration)
Protocol: as §1, §2, §3

Thrips palmi = assay: Test on Thrips palmi (potted eggplants, spray); conditions: eggplants in pots, not sprayed = 100
Protocol: An emulsifiable emulsion prepared as in Formulation Example 3 was diluted with water to a predetermined concentration. The dilution was sprayed on eggplants which were grown in pots and on which Thrips palmi was parasitic, so that the dilution fully dripped on the plant leaves. The number of dead insects was examined at predetermined dates, and the corrected density indices of the test compounds were calculated. For each area, the test was repeated three times.

CC(C)(C(=O)Nc1ccc(C(F)(F)F)cc1)c1ccc(Cl)cc1 [Compound No. 4]
Corrected density index After 3 days ([1]; 250 ppm): 7 | Corrected density index After 7 days ([1]; 250 ppm): 1 | Corrected density index After 14 days ([1]; 250 ppm): 0 | LC50 ([2]; Plutella xylostella, 72 h): 96 µg/mL (≈ 281 µM) | LC50 ([3]; Plutella xylostella, 72 h): 95 µg/mL (≈ 278 µM) | Corrected density index After 1 day (Thrips palmi; 250 ppm): 19 | Corrected density index After 3 days (Thrips palmi; 250 ppm): 8 | Corrected density index After 7 days (Thrips palmi; 250 ppm): 11 | Corrected density index After 1 day (Thrips palmi; 500 ppm): 12 | Corrected density index After 3 days (Thrips palmi; 500 ppm): 4 | Corrected density index After 7 days (Thrips palmi; 500 ppm): 6

CC(C)(C(=O)Nc1ccc(Cl)cc1)c1ccc(Cl)cc1Cl [compound 19]
LC50 ([2]; Plutella xylostella, 72 h): 106 µg/mL (≈ 309 µM) | LC50 ([3]; Plutella xylostella, 72 h): 119 µg/mL (≈ 347 µM)

CCC(C)c1ccccc1OC(=O)NC (centres unmarked) [BPMC, 2sec. butylphenylN--methyl carbamate, reference compound]
Corrected density index After 1 day (Thrips palmi; 250 ppm): 7 | Corrected density index After 3 days (Thrips palmi; 250 ppm): 35 | Corrected density index After 7 days (Thrips palmi; 250 ppm): 57 | Corrected density index After 1 day (Thrips palmi; 500 ppm): 2 | Corrected density index After 3 days (Thrips palmi; 500 ppm): 15 | Corrected density index After 7 days (Thrips palmi; 500 ppm): 45

CC(C)(C(=O)Nc1ccc(Cl)cc1)c1ccc(Br)cc1 [compound 15]
LC50 ([2]; Plutella xylostella, 72 h): 129 µg/mL (≈ 366 µM) | LC50 ([3]; Plutella xylostella, 72 h): 137 µg/mL (≈ 388 µM)

CC(C)(C(=O)Nc1ccc(Cl)cc1)c1ccccc1F [compound 16]
LC50 ([2]; Plutella xylostella, 72 h): 331 µg/mL (≈ 1130 µM) | LC50 ([3]; Plutella xylostella, 72 h): 320 µg/mL (≈ 1100 µM)

CC(C)(C(=O)Nc1ccc(C#N)cc1)c1ccc(Cl)cc1 [compound 5]
LC50 ([2]; Plutella xylostella, 72 h): 90 µg/mL (≈ 301 µM) | LC50 ([3]; Plutella xylostella, 72 h): 97 µg/mL (≈ 325 µM)

CC(C)(C(=O)Nc1ccc(Br)cc1)c1ccc(Cl)cc1 [Compound No. 3]
Corrected density index After 3 days ([1]; 250 ppm): 7 | Corrected density index After 7 days ([1]; 250 ppm): 2 | Corrected density index After 14 days ([1]; 250 ppm): 3 | LC50 ([2]; Plutella xylostella, 72 h): 51 µg/mL (≈ 145 µM) | LC50 ([3]; Plutella xylostella, 72 h): 57 µg/mL (≈ 162 µM) | Corrected density index After 1 day (Thrips palmi; 250 ppm): 16 | Corrected density index After 3 days (Thrips palmi; 250 ppm): 8 | Corrected density index After 7 days (Thrips palmi; 250 ppm): 14 | Corrected density index After 1 day (Thrips palmi; 500 ppm): 9 | Corrected density index After 3 days (Thrips palmi; 500 ppm): 3 | Corrected density index After 7 days (Thrips palmi; 500 ppm): 3

CN(C(=O)C(C)(C)c1ccccc1F)c1ccc(Cl)cc1 [compound 18]
LC50 ([2]; Plutella xylostella, 72 h): 211 µg/mL (≈ 690 µM) | LC50 ([3]; Plutella xylostella, 72 h): 213 µg/mL (≈ 697 µM)

CCN(C(=O)C(C)(C)c1ccc(F)cc1)c1ccc(Br)cc1 [compound 14]
LC50 ([2]; Plutella xylostella, 72 h): 93 µg/mL (≈ 255 µM) | LC50 ([3]; Plutella xylostella, 72 h): 88 µg/mL (≈ 242 µM)

CCN(C(=O)C(C)(C)c1ccc(F)cc1)c1ccc(Cl)cc1 [compound 13]
LC50 ([2]; Plutella xylostella, 72 h): 73 µg/mL (≈ 228 µM) | LC50 ([3]; Plutella xylostella, 72 h): 74 µg/mL (≈ 231 µM)

CC(C)(C(=O)Nc1ccc(Cl)cc1)c1ccc(Cl)cc1 [compound 2, alpha,alpha-dimethyl-p-chlorophenylaceto-p-chloranilide]
Corrected density index After 3 days ([1]; 250 ppm): 10 | Corrected density index After 7 days ([1]; 250 ppm): 5 | Corrected density index After 14 days ([1]; 250 ppm): 2 | LC50 ([2]; Plutella xylostella, 72 h): 110 µg/mL (≈ 357 µM) | LC50 ([3]; Plutella xylostella, 72 h): 101 µg/mL (≈ 328 µM) | Corrected density index After 1 day (Thrips palmi; 250 ppm): 16 | Corrected density index After 3 days (Thrips palmi; 250 ppm): 14 | Corrected density index After 7 days (Thrips palmi; 250 ppm): 14 | Corrected density index After 1 day (Thrips palmi; 500 ppm): 20 | Corrected density index After 3 days (Thrips palmi; 500 ppm): 10 | Corrected density index After 7 days (Thrips palmi; 500 ppm): 12

CCCN(C(=O)C(C)(C)c1ccc(Cl)cc1)c1ccc(Cl)cc1 [compound 8]
LC50 ([2]; Plutella xylostella, 72 h): 204 µg/mL (≈ 582 µM) | LC50 ([3]; Plutella xylostella, 72 h): 198 µg/mL (≈ 565 µM)

CC(C)(C(=O)Nc1ccc(Cl)cc1)c1ccc(F)cc1 [compound 11]
LC50 ([2]; Plutella xylostella, 72 h): 111 µg/mL (≈ 380 µM) | LC50 ([3]; Plutella xylostella, 72 h): 107 µg/mL (≈ 367 µM)

CC(C)(C(=O)Nc1ccc(C(F)(F)F)cc1)c1ccc(F)cc1 [compound 12]
LC50 ([2]; Plutella xylostella, 72 h): 110 µg/mL (≈ 338 µM) | LC50 ([3]; Plutella xylostella, 72 h): 95 µg/mL (≈ 292 µM)

CC(C)(C(=O)Nc1ccc(F)cc1)c1ccc(Cl)cc1 [compound 1]
LC50 ([2]; Plutella xylostella, 72 h): 123 µg/mL (≈ 422 µM) | LC50 ([3]; Plutella xylostella, 72 h): 126 µg/mL (≈ 432 µM)

CC(C)(C(=O)Nc1ccc(F)cc1)c1ccc(Cl)cc1Cl [compound 20]
LC50 ([2]; Plutella xylostella, 72 h): 128 µg/mL (≈ 392 µM) | LC50 ([3]; Plutella xylostella, 72 h): 122 µg/mL (≈ 374 µM)

COP(=O)(OC)OC=C(Cl)Cl [DDVP, 2,2-dichlorovinyl dimethyl phosphate, reference compound]
Corrected density index After 3 days ([1]; 500 ppm): 15 | Corrected density index After 7 days ([1]; 500 ppm): 52 | Corrected density index After 14 days ([1]; 500 ppm): 86 | LC50 ([2]; resistant Plutella xylostella, 3rd-instar larvae, 72 hours, 25° C., wettable powder dilution, method of Bliss): 1020 µg/mL | LC50 ([3]; sensitive Plutella xylostella, 3rd-instar larvae, 72 hours, 25° C., wettable powder dilution, method of Bliss): 103 µg/mL

COP(=O)(NC(C)=O)SC (centres unmarked) [Acephate, O,S--dimethyl N--acetylphosphoramidothiolate, reference compound]
Corrected density index After 3 days ([1]; 500 ppm): 8 | Corrected density index After 7 days ([1]; 500 ppm): 12 | Corrected density index After 14 days ([1]; 500 ppm): 15 | LC50 ([2]; Plutella xylostella, 72 h): 878 µg/mL (≈ 4790 µM) | LC50 ([3]; Plutella xylostella, 72 h): 178 µg/mL (≈ 972 µM)

CCN(C(=O)C(C)(C)c1ccc(Cl)cc1)c1ccc(Br)cc1 [compound 10, alpha,alpha-dimethyl-p-chlorophenylaceto-N-ethyl-p-bromanilide]
Corrected density index After 3 days ([1]; 250 ppm): 5 | Corrected density index After 7 days ([1]; 250 ppm): 0 | Corrected density index After 14 days ([1]; 250 ppm): 0 | LC50 ([2]; Plutella xylostella, 72 h): 46 µg/mL (≈ 121 µM) | LC50 ([3]; Plutella xylostella, 72 h): 48 µg/mL (≈ 126 µM) | Corrected density index After 1 day (Thrips palmi; 250 ppm): 12 | Corrected density index After 3 days (Thrips palmi; 250 ppm): 12 | Corrected density index After 7 days (Thrips palmi; 250 ppm): 11 | Corrected density index After 1 day (Thrips palmi; 500 ppm): 7 | Corrected density index After 3 days (Thrips palmi; 500 ppm): 1 | Corrected density index After 7 days (Thrips palmi; 500 ppm): 4

CC(C)(C(=O)Nc1ccc(C(F)(F)F)cc1)c1ccccc1F [compound 17]
LC50 ([2]; Plutella xylostella, 72 h): 256 µg/mL (≈ 787 µM) | LC50 ([3]; Plutella xylostella, 72 h): 281 µg/mL (≈ 864 µM)

CN(C(=O)C(C)(C)c1ccc(Cl)cc1)c1ccc(Cl)cc1 [compound 6]
LC50 ([2]; Plutella xylostella, 72 h): 60 µg/mL (≈ 186 µM) | LC50 ([3]; Plutella xylostella, 72 h): 61 µg/mL (≈ 189 µM)

CCN(C(=O)C(C)(C)c1ccc(Cl)cc1)c1ccc(Cl)cc1 [Compound No. 7]
Corrected density index After 3 days ([1]; 250 ppm): 4 | Corrected density index After 7 days ([1]; 250 ppm): 0 | Corrected density index After 14 days ([1]; 250 ppm): 0 | LC50 ([2]; Plutella xylostella, 72 h): 53 µg/mL (≈ 158 µM) | LC50 ([3]; Plutella xylostella, 72 h): 51 µg/mL (≈ 152 µM) | Corrected density index After 1 day (Thrips palmi; 250 ppm): 16 | Corrected density index After 3 days (Thrips palmi; 250 ppm): 9 | Corrected density index After 7 days (Thrips palmi; 250 ppm): 13 | Corrected density index After 1 day (Thrips palmi; 500 ppm): 10 | Corrected density index After 3 days (Thrips palmi; 500 ppm): 2 | Corrected density index After 7 days (Thrips palmi; 500 ppm): 3

CCCCN(C(=O)C(C)(C)c1ccc(Cl)cc1)c1ccc(Cl)cc1 [compound 9]
LC50 ([2]; Plutella xylostella, 72 h): 365 µg/mL (≈ 1000 µM) | LC50 ([3]; Plutella xylostella, 72 h): 372 µg/mL (≈ 1020 µM)
